# Measured values taken from patent US6376497B1, “Antifungal azole derivatives having a fluorinated vinyl group and process for preparing same” (Korea Research Institute of Chemical Technology, priority 1999, dated 2002).
# What was measured:
# Test in all cases: In vitro antifungal activity, microbroth dilution MIC
# Format in all cases: cell-based
# [1] = test system: Cryptococcus neoformans B. 42419; conditions: 4 to 48 hours; for Minimal inhibitory concentration(MIC), Cry. neoformans B. 42419: RPMI-1640, 35° C., no growth observed; for Minimal inhibitory concentration (MIC): Cry. neoformans B. 42419, RPMI-1640, 35° C.
# In short: (§1)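 Broth microdilution adapted from NCCLS M27, in RPMI-1640 with 0.165 M MOPS, pH 7.0. Yeast or mould inoculum at 2×10^3 CFU/ml was mixed 1:1 with DMSO-derived compound solutions (200 to 0.10 μg/ml before mixing) and incubated at 35 °C for 4 to 48 h. MIC was the concentration showing no growth.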
# [2] = test system: Cryptococcus neoformans A. 34144; conditions: for Minimal inhibitory concentration(MIC), Cry. neoformans A. 34144: RPMI-1640, 35° C., no growth observed; for Minimal inhibitory concentration (MIC): Cry. neoformans A. 34144, RPMI-1640, 35° C.
# In short: as §1
# [3] = test system: Torulopsis glabrata B. 16205; conditions: 4 to 48 hours; for Minimal inhibitory concentration(MIC), T. glabrata B. 16205: RPMI-1640, 35° C., no growth observed; for Minimal inhibitory concentration (MIC): T. glabrata B. 16205, RPMI-1640, 35° C.
# In short: as §1
# Candida albicans C1-2 = conditions: 4 to 48 hours; for Minimal inhibitory concentration (MIC): C. albicans C1-2, RPMI-1640, 35° C.
# In short: as §1
# [4] = test system: Candida tropicalis A. 13803; conditions: 4 to 48 hours; for Minimal inhibitory concentration(MIC), C. tropicalis A. 13803: RPMI-1640, 35° C., no growth observed; for Minimal inhibitory concentration (MIC): C. tropicalis A. 13803, RPMI-1640, 35° C.
# In short: as §1
# [5] = test system: Trichophyton mentagrophytes A. 9129; conditions: for Minimal inhibitory concentration(MIC), T. mentagrophytes A. 9129: RPMI-1640, 35° C., no growth observed; for Minimal inhibitory concentration (MIC): T. mentagrophytes A. 9129, RPMI-1640, 35° C.
# In short: as §1
# [6] = test system: Aspergillus niger A. 16404; conditions: for Minimal inhibitory concentration(MIC), A. niger A. 16404: RPMI-1640, 35° C., no growth observed; for Minimal inhibitory concentration (MIC): A. niger A. 16404, RPMI-1640, 35° C.
# In short: as §1
# [7] = test system: Cryptococcus neoformans IFM. 40092; conditions: for Minimal inhibitory concentration(MIC), Cry. neoformans IFM. 40092: RPMI-1640, 35° C., no growth observed; for Minimal inhibitory concentration (MIC): Cry. neoformans IFM. 40092, RPMI-1640, 35° C.
# In short: as §1
# [8] = test system: Candida parapsitosis A. 7330; conditions: 4 to 48 hours; for Minimal inhibitory concentration(MIC), C. parapsitosis A. 7330: RPMI-1640, 35° C., no growth observed; for Minimal inhibitory concentration (MIC): C. parapsitosis A. 7330, RPMI-1640, 35° C.
# In short: as §1
# [9] = test system: Candida albicans IFO. 1385; conditions: 4 to 48 hours; for Minimal inhibitory concentration(MIC), C. albicans IFO. 1385: RPMI-1640, 35° C., no growth observed; for Minimal inhibitory concentration (MIC): C. albicans IFO. 1385, RPMI-1640, 35° C.
# In short: as §1
# [10] = test system: Candida albicans A. 10231; conditions: 4 to 48 hours; for Minimal inhibitory concentration (MIC): C. albicans A. 10231, RPMI-1640, 35° C.
# In short: as §1
# [11] = test system: Candida pseudotropicalis K. 11658; conditions: 4 to 48 hours; for Minimal inhibitory concentration(MIC), C. pseudotropicalis K. 11658: RPMI-1640, 35° C., no growth observed; for Minimal inhibitory concentration (MIC): C. pseudotropicalis K. 11658, RPMI-1640, 35° C.
# In short: as §1
# [12] = test system: Trichophyton mentagrophytes B. 32663; conditions: for Minimal inhibitory concentration(MIC), T. mentagrophytes B. 32663: RPMI-1640, 35° C., no growth observed; for Minimal inhibitory concentration (MIC): T. mentagrophytes B. 32663, RPMI-1640, 35° C.
# In short: as §1
# Candida krusei K. 11655 = conditions: 4 to 48 hours; for Minimal inhibitory concentration(MIC), C. krusei K. 11655: RPMI-1640, 35° C., no growth observed; for Minimal inhibitory concentration (MIC): C. krusei K. 11655, RPMI-1640, 35° C.
# In short: as §1
# [13] = test system: Aspergillus furnigatus B. 19119; conditions: for Minimal inhibitory concentration(MIC), A furnigatus B. 19119: RPMI-1640, 35° C., no growth observed; for Minimal inhibitory concentration (MIC): A furnigatus B. 19119, RPMI-1640, 35° C.
# In short: as §1
# [14] = RPMI-1640, 35° C., no growth observed
Structure (SMILES),"Minimal inhibitory concentration(MIC), Cry. neoformans B. 42419 [1] [µg/mL]","Minimal inhibitory concentration(MIC), T. glabrata B. 16205 [3] [µg/mL]","Minimal inhibitory concentration(MIC), C. tropicalis A. 13803 [4] [µg/mL]","Minimal inhibitory concentration(MIC), C. parapsitosis A. 7330 [8] [µg/mL]","Minimal inhibitory concentration(MIC), C. albicans IFO. 1385 [9] [µg/mL]",Minimal inhibitory concentration (MIC) [1] [µg/mL],Minimal inhibitory concentration (MIC) ([2]; 4 to 48 hours) [µg/mL],Minimal inhibitory concentration (MIC) [3] [µg/mL],Minimal inhibitory concentration (MIC) (Candida albicans C1-2) [µg/mL],Minimal inhibitory concentration (MIC) [4] [µg/mL],Minimal inhibitory concentration (MIC) ([5]; 4 to 48 hours) [µg/mL],Minimal inhibitory concentration (MIC) ([6]; 4 to 48 hours) [µg/mL],Minimal inhibitory concentration (MIC) ([7]; 4 to 48 hours) [µg/mL],Minimal inhibitory concentration (MIC) [8] [µg/mL],Minimal inhibitory concentration (MIC) [9] [µg/mL],Minimal inhibitory concentration (MIC) [10] [µg/mL],Minimal inhibitory concentration (MIC) [11] [µg/mL],Minimal inhibitory concentration (MIC) ([12]; 4 to 48 hours) [µg/mL],Minimal inhibitory concentration (MIC) (Candida krusei K. 11655) [µg/mL],Minimal inhibitory concentration (MIC) ([13]; 4 to 48 hours) [µg/mL],further results
COc1cccc(C(=C(F)N2CCN(c3ccc(OCC4COC(Cn5ccnc5)(c5ccc(F)cc5F)O4)cc3)CC2)C(F)(F)F)c1 (mixture of isomers) [Ex. 143],0.39,100,>100,3.13,0.39,,,,,,,,,,,,,,,,"Minimal inhibitory concentration(MIC), Cry. neoformans A. 34144 [2]: 3.13 µg/mL; Minimal inhibitory concentration(MIC), C. albicans C1-2 (Candida albicans C1-2; [14]): >100 µg/mL; Minimal inhibitory concentration(MIC), T. mentagrophytes A. 9129 [5]: 6.25 µg/mL; Minimal inhibitory concentration(MIC), A. niger A. 16404 [6]: >100 µg/mL; Minimal inhibitory concentration(MIC), Cry. neoformans IFM. 40092 [7]: 0.78 µg/mL; Minimal inhibitory concentration(MIC), C. albicans A. 10231 [10, 14]: >100 µg/mL; Minimal inhibitory concentration(MIC), C. pseudotropicalis K. 11658 [11]: 6.25 µg/mL; Minimal inhibitory concentration(MIC), T. mentagrophytes B. 32663 [12]: 0.78 µg/mL; Minimal inhibitory concentration(MIC), C. krusei K. 11655 (Candida krusei K. 11655): 1.56 µg/mL; Minimal inhibitory concentration(MIC), A furnigatus B. 19119 [13]: 100 µg/mL"
FC(OCC1COC(Cn2ccnc2)(c2ccc(F)cc2F)O1)=C(c1ccc(C(F)(F)F)cc1)C(F)(F)F (mixture of isomers) [Ex. 59],,,,,,3.13,3.13,3.13,25.0,>100,25.0,>100,0.78,>100,0.78,12.5,25.0,12.5,50.0,50.0,
Cc1cc(C)cc(C=C(F)OCC2COC(Cn3ccnc3)(c3ccc(F)cc3F)O2)c1 (mixture of isomers) [Ex. 41],,,,,,3.13,3.13,6.25,12.5,25.0,6.25,25.0,0.78,100,0.78,12.5,25.0,3.13,50.0,6.25,
Cc1cc(C)cc(C=C(F)OCC2COC(Cn3cncn3)(c3ccc(Cl)cc3Cl)O2)c1 (mixture of isomers) [Ex. 73],6.25,50.0,>100,>100,12.5,,,,50.0,,,,,,,50.0,,,,,"Minimal inhibitory concentration(MIC), Cry. neoformans A. 34144 ([2]; 4 to 48 hours): 12.5 µg/mL; Minimal inhibitory concentration(MIC), T. mentagrophytes A. 9129 ([5]; 4 to 48 hours): 25.0 µg/mL; Minimal inhibitory concentration(MIC), A. niger A. 16404 ([6]; 4 to 48 hours): >100 µg/mL; Minimal inhibitory concentration(MIC), Cry. neoformans IFM. 40092 ([7]; 4 to 48 hours): 1.56 µg/mL; Minimal inhibitory concentration(MIC), C. pseudotropicalis K. 11658 [11]: 50.0 µg/mL; Minimal inhibitory concentration(MIC), T. mentagrophytes B. 32663 ([12]; 4 to 48 hours): 25.0 µg/mL; Minimal inhibitory concentration(MIC), C. krusei K. 11655 (Candida krusei K. 11655): 100 µg/mL; Minimal inhibitory concentration(MIC), A furnigatus B. 19119 ([13]; 4 to 48 hours): >100 µg/mL"
FC(=Cc1ccccc1)OCC1COC(Cn2cncn2)(c2ccc(Cl)cc2Cl)O1 (mixture of isomers) [Ex. 69],,,,,,1.56,3.13,25,25.0,>100,0.78,6.25,0.39,>100,3.13,25.0,6.25,0.39,12.5,6.25,
FC(=Cc1ccc(Cl)cc1)OCC1COC(Cn2cncn2)(c2ccc(Cl)cc2Cl)O1 (mixture of isomers) [Ex. 76],3.13,25.0,25.0,>100,6.25,,,,6.25,,,,,,,6.25,,,,,"Minimal inhibitory concentration(MIC), Cry. neoformans A. 34144 ([2]; 4 to 48 hours): 3.13 µg/mL; Minimal inhibitory concentration(MIC), T. mentagrophytes A. 9129 ([5]; 4 to 48 hours): 3.13 µg/mL; Minimal inhibitory concentration(MIC), A. niger A. 16404 ([6]; 4 to 48 hours): 12.5 µg/mL; Minimal inhibitory concentration(MIC), Cry. neoformans IFM. 40092 ([7]; 4 to 48 hours): 0.78 µg/mL; Minimal inhibitory concentration(MIC), C. pseudotropicalis K. 11658 [11]: 100 µg/mL; Minimal inhibitory concentration(MIC), T. mentagrophytes B. 32663 ([12]; 4 to 48 hours): 3.13 µg/mL; Minimal inhibitory concentration(MIC), C. krusei K. 11655 (Candida krusei K. 11655): >100 µg/mL; Minimal inhibitory concentration(MIC), A furnigatus B. 19119 ([13]; 4 to 48 hours): 25.0 µg/mL"
COc1ccc(C(=C(F)OCC2COC(Cn3ccnc3)(c3ccc(Cl)cc3Cl)O2)C(F)(F)F)cc1 (stereo not drawn) [Ex. 27],,,,,,1.56,1.56,25.0,25.0,>100,25.0,100,0.78,>100,1.56,25.0,>100,6.25,>100,100,
CCc1ccc(C=C(F)OCC2COC(Cn3ccnc3)(c3ccc(Cl)cc3Cl)O2)cc1 (stereo not drawn) [Ex. 4],,,,,,3.13,3.13,6.25,6.25,12.5,3.13,6.25,1.56,12.5,1.56,12.5,6.25,1.56,6.25,6.25,
FC(OCC1COC(Cn2ccnc2)(c2ccc(F)cc2F)O1)=C(c1cc(Cl)cc(Cl)c1)C(F)(F)F (mixture of isomers) [Ex. 67],,,,,,1.56,1.56,6.25,12.5,100,6.25,100,0.20,100,0.78,12.5,25.0,1.56,50.0,3.13,
